In PubChem BioAssay (NCI):
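How tested: cells in 96-well plates exposed to compound for 48 hours at five concentrations. TGI denotes the concentration required for complete inhibition of growth.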

Columns and labels:
Assay in all cases: DTP human tumour cell line panel, 48 h
KM20L2 colon = tested on: KM20L2 colon
SNB-78 CNS = tested on: SNB-78 CNS
NCI-H23 lung = tested on: NCI-H23 lung
OVCAR-4 ovarian = tested on: OVCAR-4 ovarian
DLD-1 colon = tested on: DLD-1 colon
DMS 273 small cell lung = tested on: DMS 273 small cell lung
HOP-18 NSCLC = tested on: HOP-18 NSCLC
OVCAR-8 ovarian = tested on: OVCAR-8 ovarian
LXFL 529 NSCLC = tested on: LXFL 529 NSCLC
SR leukemia = tested on: SR leukemia
LOX IMVI melanoma = tested on: LOX IMVI melanoma
DMS 114 small cell lung = tested on: DMS 114 small cell lung
OVCAR-5 ovarian = tested on: OVCAR-5 ovarian
M19-MEL melanoma = tested on: M19-MEL melanoma
MOLT-4 leukemia = tested on: MOLT-4 leukemia
M14 melanoma = tested on: M14 melanoma
SK-MEL-2 melanoma = tested on: SK-MEL-2 melanoma
XF 498 CNS = tested on: XF 498 CNS
NCI/ADR-RES ovarian = tested on: NCI/ADR-RES ovarian
RXF-631 renal = tested on: RXF-631 renal

Compound	TGI (KM20L2 colon) [µM]	TGI (SNB-78 CNS) [µM]	TGI (NCI-H23 lung) [µM]	TGI (OVCAR-4 ovarian) [µM]	TGI (DLD-1 colon) [µM]	TGI (DMS 273 small cell lung) [µM]	TGI (HOP-18 NSCLC) [µM]	TGI (OVCAR-8 ovarian) [µM]	TGI (LXFL 529 NSCLC) [µM]	TGI (SR leukemia) [µM]	TGI (LOX IMVI melanoma) [µM]	TGI (DMS 114 small cell lung) [µM]	TGI (OVCAR-5 ovarian) [µM]	TGI (M19-MEL melanoma) [µM]	TGI (MOLT-4 leukemia) [µM]	TGI (M14 melanoma) [µM]	TGI (SK-MEL-2 melanoma) [µM]	TGI (XF 498 CNS) [µM]	TGI (NCI/ADR-RES ovarian) [µM]	TGI (RXF-631 renal) [µM]
COc1ccc([N-]/C(=N\n2c(=O)c(C)nn(C)c2=S)N(c2ccc(OC)cc2)c2nn3c(=O)c(C)n[n+](C)c3s2)cc1	> 100	> 100	> 100	> 100	> 100	> 100	> 100	> 100	> 100	> 100	> 100	> 100	> 100	> 100	> 100	> 100				
NCC(NC(=O)OCc1ccccc1)C(=O)O (configuration not stated)	> 50	> 50	> 50	> 50	> 50	> 50	> 50	> 50	> 50		> 50	> 50	> 50	> 50	> 50	> 50	> 50			
CC(C)OP(=O)(OC(C)C)/C(=N/N)NNc1ccc([N+](=O)[O-])cc1	> 100	> 100	> 100	> 100	> 100	> 100		> 100	> 100	> 100	> 100	> 100	> 100	> 100	> 100	> 100	> 100	> 100		
CCOc1ccc(N=Nc2ccc3oc(=O)c(C(=O)Nc4ccc(OC)cc4)cc3c2)cc1	> 100	82.8	56.9	52.9	61.4	> 100		67.6	> 100		55.6		> 100	91.7	44.4		54.4			
CCN(CC)C(=S)SC1CCOP(=O)(N(CCCl)CCCl)N1C (configuration not stated)	> 100	> 100	> 100	46.4	21.3	> 79.4	> 100	49.2	19.3	50		0.553	> 100	14.8	49.2	> 54.1	45.3		> 100	
N=C(N)n1[nH]c2c(c1=O)CCCC2			> 100	> 100				> 100		> 100	> 100		> 100		> 100	> 100	> 100		> 100	
CC1(C)C2CCC3(OCCO3)C1C1OC12 (configuration not stated)	> 100	> 100	> 100	> 100		> 100	> 100	> 100			> 100		> 100		> 100	> 100	> 100	> 100		> 100
CCCCCC(=O)OCC1(CO)C/C(=C\CC(C(C)C)C(C)C)C(=O)O1 (configuration not stated)			> 100	> 100				76.2		> 100	70		> 100		61.8	> 100	> 100		> 100	
COC(=O)NN=C(c1ccc(Cl)cc1)c1ccc(Cl)cc1			> 100	> 100				> 100		> 100	> 100		> 100		> 100	> 100	> 100		> 100	
N#CC(C#N)=C(N)/C(C#N)=C/c1cc(O)c(O)c(Br)c1	> 100	> 100	> 100	> 100	> 100	> 100		> 100	> 100	> 100	> 100	88.5	> 100	> 100	> 100	> 100	> 100	> 100	> 100	
C#CCOC(=O)C(N)CSSCC(N)C(=O)O (configuration not stated)			> 100	> 100				> 100		> 100	> 100		> 100		> 100	> 100	> 100		> 100	
Cn1cc(C[C@@H](N)C(=O)O)c2ccccc21			> 100	> 100				> 100		> 100	> 100		> 100		> 100	> 100	> 100		> 100	
CC(=O)OCC12C(OC(C)=O)C[C@@H](C)C3(CC(c4ccoc4)OC3=O)C1CCC(O)C21CO1 (some centres not stated)			> 100	> 100				> 100		> 100	> 100		> 100		> 100	> 100	> 100		> 100	
O=c1cc(-c2ccccc2)oc2ccc(Oc3nnnn3-c3ccccc3)cc12			> 93.2	> 100				> 100		> 100	> 100		> 100		> 100	> 100	> 84.5		> 100	
O=c1c2cc(Br)cc(Br)c2[nH]c(=S)n1-c1ccccc1	> 100	> 100	> 100	> 100	> 100	> 100	> 100	> 100			> 100	> 100	> 100	> 100		> 100	> 100	78.9		> 100
c1ccc2sc(C3(N4CCCCC4)CCCCCC3)cc2c1			43.3	76				72.5		36.7	34.6		36.7		29.6	67.2	68.4		45.8	
CCOC(=O)c1cc(C2CCN(Cc3ccccc3)C2=O)c(C(=O)C(=[N+]=[N-])C(C)=O)[nH]1 (configuration not stated)			> 100	> 100				> 100		> 100	> 100		> 100		> 100	> 100	> 100		> 100	

Compound	TGI (KM20L2 colon) [µM]	TGI (SNB-78 CNS) [µM]	TGI (NCI-H23 lung) [µM]	TGI (OVCAR-4 ovarian) [µM]	TGI (DLD-1 colon) [µM]	TGI (DMS 273 small cell lung) [µM]	TGI (HOP-18 NSCLC) [µM]	TGI (OVCAR-8 ovarian) [µM]	TGI (LXFL 529 NSCLC) [µM]	TGI (SR leukemia) [µM]	TGI (LOX IMVI melanoma) [µM]	TGI (DMS 114 small cell lung) [µM]	TGI (OVCAR-5 ovarian) [µM]	TGI (M19-MEL melanoma) [µM]	TGI (MOLT-4 leukemia) [µM]	TGI (M14 melanoma) [µM]	TGI (SK-MEL-2 melanoma) [µM]	TGI (XF 498 CNS) [µM]	TGI (NCI/ADR-RES ovarian) [µM]	TGI (RXF-631 renal) [µM]
CCN(CC)Cc1nc(C2CCC([N+](=O)[O-])O2)no1 (configuration not stated)			41.7	> 100				> 100		> 100	> 100		84.2		> 100	28.3	72.6		76.3	
COP1(=O)NCc2ncccc2O1 (configuration not stated)			> 100	> 100				> 100		> 100	> 100		> 100		> 100	> 100	> 100		> 100	
CSc1ccc2c(cc1=O)C(NC(=O)c1ccc(OC(C)=O)cc1)CCc1cc(O)c(O)c(O)c1-2 (configuration not stated)	> 100	> 100	67.7	22	35.8	47.1		60.2	35.2	35.3		52.4	78	29.2	28.9	30.7	49.7			
CC(C)c1cccc(C(C)C)c1NC(=O)C(=O)C(C(=O)c1ccc2ccccc2c1)C1OC(=O)c2ccccc21 (configuration not stated)		> 100	> 100	> 100	> 100				> 100	> 100	> 100	> 100	> 100	> 100	> 100	> 100	> 100			
NC(=S)N1N=C2c3ccccc3CC[C@H]2[C@@H]1c1cccs1	62.9	> 100	87.9	> 100	> 100	36.6	> 100	> 100	> 100	63	> 100	61.1	> 100	> 100	94.5	60.8	79	> 100		
Oc1c(-c2ccccc2)sc2ccccc12			77.5	> 100				> 100		34.9	32.3		90.3		88.6	50.6	41		> 100	
CCCC(=O)OC[n+]1cccc(-c2c(COC(=O)NC(C)C)c(COC(=O)NC(C)C)c3n2CCC3)c1			> 100	> 100				> 100		> 100	> 100		> 100		> 83.3	> 100	> 100		> 100	
O=C(/C=C(\Nc1ccccc1O)c1ccccc1)C(=O)NC12CC3CC(CC(C3)C1)C2			> 10	> 10				> 10		> 10	> 10		> 10		> 10	> 10	> 10		> 10	
O=C1c2nn(-c3ccccc3)nc2C(c2ccccc2)N1c1ccccc1 (configuration not stated)	> 100	> 100	> 100	> 100	> 100	> 100	> 100	> 100	> 100	> 100	> 100	> 100	> 100	> 100	> 100	> 100	> 100	> 100		
CC1(C)CN=C(Nc2ccc(Cl)cc2)S1			> 100	> 100				> 100		> 100	> 100		> 100		> 100	> 100	> 100		> 100	
O=C1C2CCC(C2)C12CC1(c3ccccc3)C(=O)c3ccccc3N1O2 (configuration not stated)	> 100	> 100	> 100	> 100	> 100	> 100	> 100	> 100	> 100	> 100		> 100		> 100	> 100	> 100		> 100		
COc1ccc(C2=NN(c3ccccc3)C(c3cc4cc(Br)ccc4nc3Cl)C2)cc1 (configuration not stated)			> 25	> 25				> 25		> 25	> 25		> 25		> 25	> 25	> 25		> 25	
Cc1cc2c(cc1C)[n+](=O)c(C(=O)N1CCN(c3ccc([N+](=O)[O-])cc3)CC1)c(C)n2[O-]			> 100	> 100				> 100		> 100	> 100		> 100		> 100	> 100	> 100		> 100	
O=C(N/N=C1/C(=O)c2c3ccccc3cc3cccc1c23)c1cccc(Cl)c1			> 100	> 100				> 100		> 100	> 100		> 100		> 100	> 100	> 100		> 100	
O=C1CC(=O)c2c(Cl)sc(Cl)c21			> 100	76.3				> 100		75.2	> 100		> 100		> 100	> 100	> 100		> 100	
Cc1ccc(S(=O)(=O)Oc2ccc(OS(=O)(=O)c3ccc(C)cc3)c3c2C(=O)c2ccccc2C3=O)cc1			> 100	> 100				> 100		> 100	> 100		> 100		> 100	> 100	> 100		> 100	
CC(C)C(=O)/C=C/c1ccc(Cl)cc1	> 100		44.7	52.3	32.2	14	13.8		30.4	26.2	22.2	39.8	35.4	29.6	55.9	33	35.4	20.5		
